From ChEMBL document CHEMBL4265964, “Discover the leading compound of 4β-S-(5-fluorobenzoxazole)-4-deoxy-4'-demethylepipodophyllotoxin with millimolar-potency toxicity by modifying the molecule structure of 4'-demethylepipodophyllotoxin” (Eur J Med Chem, 2018)
Activity calls are given as the source filed them. The calls are words filed in the database; no cut-off is given here.

How the values were obtained:
HepG2 = assay: Cytotoxicity against human HepG2 cells after 48 hrs by MTT assay; format: functional, cell-based; settings: HepG2, 48 h
L02 = assay: Cytotoxicity against human HL7702 cells after 48 hrs by MTT assay; format: cell-based; settings: L02, 48 h
HeLa = assay: Cytotoxicity against human HeLa cells after 48 hrs by MTT assay; format: functional, cell-based
[1] = Cytotoxicity against human H8 cells after 48 hrs by MTT assay; format: cell-based
A549 = assay: Cytotoxicity against human A549 cells after 48 hrs by MTT assay; format: functional, cell-based; settings: A549, 48 h
MRC5 = assay: Cytotoxicity against human MRC5 cells after 48 hrs by MTT assay; format: cell-based; settings: MRC5, 48 h
MCF7 = assay: Cytotoxicity against human MCF7 cells after 48 hrs by MTT assay; format: functional, cell-based; settings: MCF7, 48 h
HMEC = assay: Cytotoxicity against HMEC after 48 hrs by MTT assay; format: cell-based; settings: Homo sapiens
Homo sapiens [2] = species: Homo sapiens; assay: Inhibition of human topoisomerase-2 assessed as reduction in relaxation of kinetoplast DNA at 50 uM after 30 mins by ethidium bromide staining based agarose gel electrophoresis method
Homo sapiens [3] = species: Homo sapiens; assay: Inhibition of human topoisomerase-2 assessed as reduction in relaxation of kinetoplast DNA at 100 uM after 30 mins by ethidium bromide staining based agarose gel electrophoresis method
Homo sapiens [4] = species: Homo sapiens; assay: Inhibition of human topoisomerase-2 assessed as reduction in relaxation of kinetoplast DNA at 200 uM after 30 mins by ethidium bromide staining based agarose gel electrophoresis method

COc1cc([C@@H]2c3cc4c(cc3[C@@H](O)[C@H]3COC(=O)[C@H]23)OCO4)cc(OC)c1O [4'-DEMETHYLEPIPODOPHYLLOTOXIN] gave an IC50 (HepG2) of 26.1 µM, an IC50 (L02) of 19.4 µM and an IC50 (HeLa) of 27.8 µM. The IC50 [1] was 25.1 µM, the IC50 (A549) was 19 µM and the IC50 (MRC5) was 21.3 µM. The IC50 (MCF7) was 30.1 µM and the IC50 (HMEC) was 19.6 µM.

In the case of COc1cc([C@@H]2c3cc4c(cc3[C@@H](c3nc5cnc(F)cc5[nH]3)[C@H]3COC(=O)[C@H]23)OCO4)cc(OC)c1O, the inhibition (Homo sapiens [2]) is reported as “inactive”, the inhibition (Homo sapiens [3]) is reported as “inactive” and the inhibition (Homo sapiens [4]) is reported as “Active”. It also gave an IC50 (HepG2) of 22.5 µM, an IC50 (L02) of 29.8 µM and an IC50 (HeLa) of 11.9 µM. It also gave an IC50 [1] of 34 µM, an IC50 (A549) of 24.5 µM and an IC50 (MRC5) of 41.3 µM. It also gave an IC50 (MCF7) of 16.4 µM and an IC50 (HMEC) of over 100 µM.

With COc1cc([C@@H]2c3cc4c(cc3[C@@H](c3nc5ccccc5s3)[C@H]3COC(=O)[C@H]23)OCO4)cc(OC)c1O the IC50 (HepG2) was 6.7 µM, the IC50 (L02) was 22.7 µM and the IC50 (HeLa) was 5.1 µM. For the same molecule, the IC50 [1] was 19.4 µM, the IC50 (A549) was 2.6 µM and the IC50 (MRC5) was 136 µM. The IC50 (MCF7) was 11.5 µM and the IC50 (HMEC) was 28.6 µM.

COc1cc([C@@H]2c3cc4c(cc3[C@@H](c3nc5ccccc5o3)[C@H]3COC(=O)[C@H]23)OCO4)cc(OC)c1O showed an IC50 (HepG2) of 19.4 µM, an IC50 (L02) of 17.7 µM and an IC50 (HeLa) of 16.4 µM. The IC50 [1] was 20.4 µM, the IC50 (A549) was 25.6 µM and the IC50 (MRC5) was 32.3 µM. For the same molecule, the IC50 (MCF7) was 21.4 µM and the IC50 (HMEC) was 15.6 µM.

With COc1cc([C@@H]2c3cc4c(cc3[C@@H](C3CC(c5ccncc5)=CN3)[C@H]3COC(=O)[C@H]23)OCO4)cc(OC)c1O (stereo not given in full) the IC50 (HepG2) was 10 µM, the IC50 (L02) was 22.8 µM and the IC50 (HeLa) was 5.7 µM. The IC50 [1] was 23.6 µM, the IC50 (A549) was 2 µM and the IC50 (MRC5) was 19 µM. The IC50 (MCF7) was 4.3 µM and the IC50 (HMEC) was 38.1 µM.

With COc1cc([C@@H]2c3cc4c(cc3[C@@H](c3nc5cc(-c6ccccc6)ccc5o3)[C@H]3COC(=O)[C@H]23)OCO4)cc(OC)c1O the IC50 (HepG2) was over 100 µM, the IC50 (L02) was 21.7 µM and the IC50 (HeLa) was over 100 µM. For the same molecule, the IC50 [1] was over 100 µM, the IC50 (A549) was over 100 µM and the IC50 (MRC5) was 76.3 µM. For the same molecule, the IC50 (MCF7) was over 100 µM and the IC50 (HMEC) was 83.4 µM.

In the case of COc1cc([C@@H]2c3cc4c(cc3[C@@H](c3nc5cc(C(F)(F)F)ccc5o3)[C@H]3COC(=O)[C@H]23)OCO4)cc(OC)c1O, the IC50 (HepG2) is reported as 19.5 µM, the IC50 (L02) is reported as 79.5 µM and the IC50 (HeLa) is reported as 21.1 µM. For the same molecule, the IC50 [1] was 81 µM, the IC50 (A549) was 6.5 µM and the IC50 (MRC5) was 73.3 µM. For the same molecule, the IC50 (MCF7) was 34.5 µM and the IC50 (HMEC) was 72.8 µM.

Molecule COc1cc([C@@H]2c3cc4c(cc3[C@@H](c3nc5cnccc5[nH]3)[C@H]3COC(=O)[C@H]23)OCO4)cc(OC)c1O has an IC50 (HepG2) of over 100 µM, an IC50 (L02) of 59.8 µM and an IC50 (HeLa) of over 100 µM. For the same molecule, the IC50 [1] was over 100 µM, the IC50 (A549) was over 100 µM and the IC50 (MRC5) was 63.4 µM. It also gave an IC50 (MCF7) of over 100 µM and an IC50 (HMEC) of over 100 µM.

COc1cc([C@@H]2c3cc4c(cc3[C@@H](C3CC(c5ccncc5F)=CN3)[C@H]3COC(=O)[C@H]23)OCO4)cc(OC)c1O (stereo not given in full) showed an IC50 (HepG2) of 2.8 µM, an IC50 (L02) of 19.8 µM and an IC50 (HeLa) of 1.9 µM. It also gave an IC50 [1] of 19.2 µM, an IC50 (A549) of 1.4 µM and an IC50 (MRC5) of 28.1 µM. It also gave an IC50 (MCF7) of 2.5 µM and an IC50 (HMEC) of 31.5 µM.
